From ChEMBL document CHEMBL4507311, “Data for DCP probe A-1155463” (2021)

Assays:
[1] = target: SRSF protein kinase 1 (Homo sapiens) (UniProt Q96SB4); conditions: Compound concentration 1000.0 nM
[2] = target: Mast/stem cell growth factor receptor Kit (Homo sapiens) (UniProt P10721); conditions: Compound concentration 1000.0 nM
[3] = target: Serine/threonine-protein kinase RIO3 (Homo sapiens) (UniProt O14730); conditions: Compound concentration 1000.0 nM
[4] = target: Serine/threonine-protein kinase PAK 2 (Homo sapiens) (UniProt Q13177); conditions: Compound concentration 1000.0 nM
[5] = target: Casein kinase I isoform delta (Homo sapiens) (UniProt P48730); conditions: Compound concentration 1000.0 nM
[6] = target: Homeodomain-interacting protein kinase 2 (Homo sapiens) (UniProt Q9H2X6); conditions: Compound concentration 1000.0 nM
Sequence of Homeodomain-interacting protein kinase 2 (Homo sapiens) (Q9H2X6 whole entry, looked up): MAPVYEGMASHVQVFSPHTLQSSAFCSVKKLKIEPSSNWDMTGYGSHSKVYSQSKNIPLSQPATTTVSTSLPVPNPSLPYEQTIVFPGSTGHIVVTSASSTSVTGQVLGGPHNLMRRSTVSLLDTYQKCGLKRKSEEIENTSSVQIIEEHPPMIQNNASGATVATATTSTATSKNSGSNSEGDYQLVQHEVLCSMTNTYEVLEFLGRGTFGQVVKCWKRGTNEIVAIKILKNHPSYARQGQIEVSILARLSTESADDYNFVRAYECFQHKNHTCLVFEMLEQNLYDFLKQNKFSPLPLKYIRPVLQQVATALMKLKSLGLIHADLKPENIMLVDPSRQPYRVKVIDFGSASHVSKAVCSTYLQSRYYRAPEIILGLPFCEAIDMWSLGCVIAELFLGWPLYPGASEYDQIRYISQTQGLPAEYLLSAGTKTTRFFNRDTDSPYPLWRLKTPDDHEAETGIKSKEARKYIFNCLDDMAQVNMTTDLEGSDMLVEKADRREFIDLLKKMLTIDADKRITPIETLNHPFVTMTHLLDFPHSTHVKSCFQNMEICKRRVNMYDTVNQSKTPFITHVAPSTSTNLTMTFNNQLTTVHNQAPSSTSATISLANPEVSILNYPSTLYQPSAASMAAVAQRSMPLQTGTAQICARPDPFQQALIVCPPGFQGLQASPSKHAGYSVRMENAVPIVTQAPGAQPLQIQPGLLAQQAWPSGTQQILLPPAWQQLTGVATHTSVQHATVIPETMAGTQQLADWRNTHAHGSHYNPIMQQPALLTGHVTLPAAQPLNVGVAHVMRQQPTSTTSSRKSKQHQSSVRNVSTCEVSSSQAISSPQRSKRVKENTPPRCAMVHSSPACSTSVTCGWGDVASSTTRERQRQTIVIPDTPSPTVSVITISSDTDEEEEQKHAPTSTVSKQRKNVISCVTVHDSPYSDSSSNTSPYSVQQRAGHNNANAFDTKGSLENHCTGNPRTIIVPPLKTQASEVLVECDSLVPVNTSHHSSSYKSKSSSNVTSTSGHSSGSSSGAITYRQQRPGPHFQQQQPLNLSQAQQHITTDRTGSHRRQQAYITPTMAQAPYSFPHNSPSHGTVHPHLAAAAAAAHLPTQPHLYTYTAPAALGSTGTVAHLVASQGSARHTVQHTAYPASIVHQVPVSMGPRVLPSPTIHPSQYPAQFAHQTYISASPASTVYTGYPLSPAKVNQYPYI

[7] = target: RAF proto-oncogene serine/threonine-protein kinase (Homo sapiens) (UniProt P04049); conditions: Compound concentration 1000.0 nM
[8] = target: Ribosomal protein S6 kinase alpha-5 (Homo sapiens) (UniProt O75582); conditions: Compound concentration 1000.0 nM
[9] = target: Macrophage colony-stimulating factor 1 receptor (Homo sapiens) (UniProt P07333); conditions: Compound concentration 1000.0 nM
[10] = target: Histamine H2 receptor (Homo sapiens) (UniProt P25021); conditions: Compound concentration 10.0 uM
[11] = target: Delta-type opioid receptor (Homo sapiens, UniProt P41143); experiment: GPCRScan assay: inhibition of DOR; parameters: radioligand conc. used [nm] 1.0 – 2.0, parental cells stable HEK
[12] = target: Serine/threonine-protein kinase WNK4 (Homo sapiens) (UniProt Q96J92); conditions: Compound concentration 1000.0 nM
[13] = target: Rho-associated protein kinase 1 (Homo sapiens) (UniProt Q13464); conditions: Compound concentration 1000.0 nM
[14] = target: Insulin-like growth factor 1 receptor (Homo sapiens) (UniProt P08069); conditions: Compound concentration 1000.0 nM
[15] = target: Serine/threonine-protein kinase TBK1 (Homo sapiens) (UniProt Q9UHD2); conditions: Compound concentration 1000.0 nM
[16] = target: Beta-3 adrenergic receptor (Homo sapiens) (UniProt P13945); conditions: Compound concentration 10.0 uM
[17] = test system: Mast/stem cell growth factor receptor Kit (Homo sapiens), P10721 [D816V]; conditions: Compound concentration 1000.0 nM
[18] = target: Cyclin-dependent kinase 18 (Homo sapiens) (UniProt Q07002); conditions: Compound concentration 1000.0 nM
[19] = target: Serine/threonine-protein kinase PAK 5 (Homo sapiens) (UniProt Q9P286); conditions: Compound concentration 1000.0 nM
[20] = target: Casein kinase I isoform gamma-1 (Homo sapiens) (UniProt Q9HCP0); conditions: Compound concentration 1000.0 nM
[21] = target: Beta-adrenergic receptor kinase 1 (Homo sapiens) (UniProt P25098); conditions: Compound concentration 1000.0 nM
[22] = target: Mu-type opioid receptor (Homo sapiens) (UniProt P35372); conditions: Compound concentration 10.0 uM
[23] = test system: Phosphatidylinositol 4,5-bisphosphate 3-kinase catalytic subunit alpha isoform (Homo sapiens), P42336 [I800L]; conditions: Compound concentration 1000.0 nM
[24] = target: Mitogen-activated protein kinase kinase kinase 12 (Homo sapiens) (UniProt Q12852); conditions: Compound concentration 1000.0 nM
[25] = target: 5-hydroxytryptamine receptor 6 (Homo sapiens) (UniProt P50406); conditions: Compound concentration 10.0 uM
[26] = target: Calcium-dependent protein kinase 1 (Plasmodium falciparum) (UniProt P62344); conditions: Compound concentration 1000.0 nM
[27] = target: MAP kinase-activated protein kinase 2 (Homo sapiens) (UniProt P49137); conditions: Compound concentration 1000.0 nM
[28] = target: Leukocyte tyrosine kinase receptor (Homo sapiens) (UniProt P29376); conditions: Compound concentration 1000.0 nM
[29] = target: Cyclin-dependent kinase 19 (Homo sapiens) (UniProt Q9BWU1); conditions: Compound concentration 1000.0 nM
Sequence of Cyclin-dependent kinase 19 (Homo sapiens) (Q9BWU1 whole entry): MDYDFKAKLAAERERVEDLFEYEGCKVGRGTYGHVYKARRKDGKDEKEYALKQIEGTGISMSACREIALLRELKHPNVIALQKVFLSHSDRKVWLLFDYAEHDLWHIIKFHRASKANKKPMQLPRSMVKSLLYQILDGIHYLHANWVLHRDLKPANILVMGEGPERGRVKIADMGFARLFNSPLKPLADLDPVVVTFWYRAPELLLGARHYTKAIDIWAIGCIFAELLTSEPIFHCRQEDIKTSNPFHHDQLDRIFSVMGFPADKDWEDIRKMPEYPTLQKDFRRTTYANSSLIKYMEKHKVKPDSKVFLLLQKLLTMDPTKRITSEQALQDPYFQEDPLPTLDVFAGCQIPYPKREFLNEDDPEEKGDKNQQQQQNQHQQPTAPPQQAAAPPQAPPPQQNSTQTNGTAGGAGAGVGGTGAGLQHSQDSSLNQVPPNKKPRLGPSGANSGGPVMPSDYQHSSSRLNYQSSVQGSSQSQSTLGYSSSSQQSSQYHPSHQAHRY

[30] = target: Serine/threonine-protein kinase WNK2 (Homo sapiens) (UniProt Q9Y3S1); conditions: Compound concentration 1000.0 nM
Sequence of Serine/threonine-protein kinase WNK2 (Homo sapiens) (Q9Y3S1 whole entry): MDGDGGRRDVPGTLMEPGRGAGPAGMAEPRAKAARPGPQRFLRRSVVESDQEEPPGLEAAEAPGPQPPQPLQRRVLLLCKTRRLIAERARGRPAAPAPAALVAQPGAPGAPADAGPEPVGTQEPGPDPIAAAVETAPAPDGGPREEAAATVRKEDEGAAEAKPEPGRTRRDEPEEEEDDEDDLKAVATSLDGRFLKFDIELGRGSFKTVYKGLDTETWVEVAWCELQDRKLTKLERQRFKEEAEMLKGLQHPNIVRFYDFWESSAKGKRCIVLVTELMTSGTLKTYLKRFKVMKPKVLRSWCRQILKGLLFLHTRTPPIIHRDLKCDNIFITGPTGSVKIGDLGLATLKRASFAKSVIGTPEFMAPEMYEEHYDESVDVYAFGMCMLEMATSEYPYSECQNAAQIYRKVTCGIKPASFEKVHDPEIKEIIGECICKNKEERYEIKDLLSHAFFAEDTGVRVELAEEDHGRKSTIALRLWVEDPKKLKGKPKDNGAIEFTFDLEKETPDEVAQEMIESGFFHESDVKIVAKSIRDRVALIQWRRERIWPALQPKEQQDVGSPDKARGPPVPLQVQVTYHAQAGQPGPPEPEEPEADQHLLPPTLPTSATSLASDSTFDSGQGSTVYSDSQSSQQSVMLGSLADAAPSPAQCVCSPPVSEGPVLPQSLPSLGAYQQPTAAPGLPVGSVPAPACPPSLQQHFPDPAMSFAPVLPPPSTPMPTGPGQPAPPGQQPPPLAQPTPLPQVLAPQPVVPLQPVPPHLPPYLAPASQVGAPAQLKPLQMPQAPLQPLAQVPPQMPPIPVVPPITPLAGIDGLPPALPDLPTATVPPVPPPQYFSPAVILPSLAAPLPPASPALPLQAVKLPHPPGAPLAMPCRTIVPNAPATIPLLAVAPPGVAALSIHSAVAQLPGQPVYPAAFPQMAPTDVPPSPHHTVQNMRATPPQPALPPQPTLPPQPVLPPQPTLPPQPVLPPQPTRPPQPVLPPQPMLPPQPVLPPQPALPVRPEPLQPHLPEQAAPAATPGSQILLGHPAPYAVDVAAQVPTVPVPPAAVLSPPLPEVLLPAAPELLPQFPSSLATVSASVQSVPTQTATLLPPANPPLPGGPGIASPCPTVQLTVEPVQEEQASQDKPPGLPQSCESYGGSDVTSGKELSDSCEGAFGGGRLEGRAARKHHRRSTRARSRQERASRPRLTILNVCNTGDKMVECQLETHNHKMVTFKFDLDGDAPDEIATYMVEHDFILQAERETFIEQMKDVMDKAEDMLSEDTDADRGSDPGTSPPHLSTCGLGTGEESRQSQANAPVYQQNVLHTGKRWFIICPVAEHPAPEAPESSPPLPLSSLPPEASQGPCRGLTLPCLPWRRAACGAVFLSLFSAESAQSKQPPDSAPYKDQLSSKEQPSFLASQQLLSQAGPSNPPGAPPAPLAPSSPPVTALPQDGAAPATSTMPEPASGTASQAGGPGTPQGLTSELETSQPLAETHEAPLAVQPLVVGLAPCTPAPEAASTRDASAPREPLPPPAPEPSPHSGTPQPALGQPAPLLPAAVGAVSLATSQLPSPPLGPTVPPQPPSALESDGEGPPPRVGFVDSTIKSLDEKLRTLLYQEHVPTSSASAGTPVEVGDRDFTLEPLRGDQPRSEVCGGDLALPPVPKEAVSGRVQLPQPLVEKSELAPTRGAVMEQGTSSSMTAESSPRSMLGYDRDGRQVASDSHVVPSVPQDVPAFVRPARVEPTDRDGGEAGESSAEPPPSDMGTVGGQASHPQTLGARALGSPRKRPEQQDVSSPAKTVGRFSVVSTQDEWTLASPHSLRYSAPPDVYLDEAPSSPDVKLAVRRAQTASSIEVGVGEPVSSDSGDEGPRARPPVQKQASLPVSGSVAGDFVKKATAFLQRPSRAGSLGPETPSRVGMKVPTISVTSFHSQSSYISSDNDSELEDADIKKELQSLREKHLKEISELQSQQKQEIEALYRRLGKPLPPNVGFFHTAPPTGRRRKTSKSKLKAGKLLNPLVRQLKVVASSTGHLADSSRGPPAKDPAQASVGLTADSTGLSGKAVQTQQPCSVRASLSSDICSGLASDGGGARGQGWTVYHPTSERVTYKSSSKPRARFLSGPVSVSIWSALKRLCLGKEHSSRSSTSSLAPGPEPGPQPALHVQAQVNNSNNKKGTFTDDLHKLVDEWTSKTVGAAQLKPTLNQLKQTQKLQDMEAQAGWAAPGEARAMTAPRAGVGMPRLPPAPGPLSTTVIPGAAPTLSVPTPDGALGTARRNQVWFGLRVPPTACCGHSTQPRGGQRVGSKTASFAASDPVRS

[31] = target: RAC-beta serine/threonine-protein kinase (Homo sapiens) (UniProt P31751); conditions: Compound concentration 1000.0 nM
[32] = target: Serine/threonine-protein kinase BRSK2 (Homo sapiens) (UniProt Q8IWQ3); conditions: Compound concentration 1000.0 nM
[33] = target: Protein-tyrosine kinase 6 (Homo sapiens) (UniProt Q13882); conditions: Compound concentration 1000.0 nM
[34] = target: Ephrin type-A receptor 8 (Homo sapiens) (UniProt P29322); conditions: Compound concentration 1000.0 nM
[35] = target: Serine/threonine-protein kinase WNK1 (Homo sapiens) (UniProt Q9H4A3); conditions: Compound concentration 1000.0 nM
[36] = target: Phosphatidylinositol 4,5-bisphosphate 3-kinase catalytic subunit delta isoform (Homo sapiens) (UniProt O00329); conditions: Compound concentration 1000.0 nM
[37] = target: Dual specificity mitogen-activated protein kinase kinase 1 (Homo sapiens) (UniProt Q02750); conditions: Compound concentration 1000.0 nM
Sequence of Dual specificity mitogen-activated protein kinase kinase 1 (Homo sapiens) (Q02750 whole entry): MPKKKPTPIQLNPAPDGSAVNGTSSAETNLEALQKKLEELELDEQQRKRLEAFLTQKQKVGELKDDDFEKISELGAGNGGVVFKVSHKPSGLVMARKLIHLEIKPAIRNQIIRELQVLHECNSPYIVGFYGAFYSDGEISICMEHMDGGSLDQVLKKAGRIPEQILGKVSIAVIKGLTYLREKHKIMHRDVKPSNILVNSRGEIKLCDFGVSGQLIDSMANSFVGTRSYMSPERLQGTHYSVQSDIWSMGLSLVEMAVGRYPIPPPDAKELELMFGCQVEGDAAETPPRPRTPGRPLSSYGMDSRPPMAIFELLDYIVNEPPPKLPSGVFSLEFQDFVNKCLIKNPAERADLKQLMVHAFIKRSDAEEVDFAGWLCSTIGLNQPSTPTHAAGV

[38] = target: Cyclin-dependent kinase 7 (Homo sapiens) (UniProt P50613); conditions: Compound concentration 1000.0 nM
[39] = target: Interleukin-1 receptor-associated kinase 3 (Homo sapiens) (UniProt Q9Y616); conditions: Compound concentration 1000.0 nM
[40] = target: Sigma intracellular receptor 2 (Homo sapiens, UniProt Q5BJF2); conditions: Compound concentration 10.0 uM
Sequence of Sigma intracellular receptor 2 (Q5BJF2 whole entry): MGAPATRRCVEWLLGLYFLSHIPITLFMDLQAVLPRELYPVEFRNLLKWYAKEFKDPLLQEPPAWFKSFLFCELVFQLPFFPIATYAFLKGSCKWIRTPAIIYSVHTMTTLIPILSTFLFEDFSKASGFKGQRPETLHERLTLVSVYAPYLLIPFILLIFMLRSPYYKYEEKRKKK

[41] = target: Myosin-IIIb (Homo sapiens) (UniProt Q8WXR4); conditions: Compound concentration 1000.0 nM
[42] = target: AP2-associated protein kinase 1 (Homo sapiens) (UniProt Q2M2I8); conditions: Compound concentration 1000.0 nM
[43] = target: 5'-AMP-activated protein kinase catalytic subunit alpha-2 (Homo sapiens) (UniProt P54646); conditions: Compound concentration 1000.0 nM
[44] = target: Non-receptor tyrosine-protein kinase TYK2 (Homo sapiens) (UniProt P29597); conditions: Compound concentration 1000.0 nM
[45] = target: Tyrosine-protein kinase CSK (Homo sapiens) (UniProt P41240); conditions: Compound concentration 1000.0 nM
Sequence of Tyrosine-protein kinase CSK (Homo sapiens) (P41240 2-450 limits assumed): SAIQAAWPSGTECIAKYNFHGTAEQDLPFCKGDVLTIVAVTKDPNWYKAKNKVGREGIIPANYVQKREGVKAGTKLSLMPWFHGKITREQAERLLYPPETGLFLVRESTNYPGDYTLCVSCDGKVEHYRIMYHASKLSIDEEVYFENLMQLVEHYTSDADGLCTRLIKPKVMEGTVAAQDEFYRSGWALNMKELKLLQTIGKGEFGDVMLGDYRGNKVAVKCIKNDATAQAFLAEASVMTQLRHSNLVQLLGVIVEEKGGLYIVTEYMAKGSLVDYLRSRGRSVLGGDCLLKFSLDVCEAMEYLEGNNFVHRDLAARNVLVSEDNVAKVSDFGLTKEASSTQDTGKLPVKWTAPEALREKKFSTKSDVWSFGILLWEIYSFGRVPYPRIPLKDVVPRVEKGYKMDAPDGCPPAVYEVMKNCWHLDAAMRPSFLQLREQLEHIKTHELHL

[46] = target: Focal adhesion kinase 1 (Homo sapiens) (UniProt Q05397); conditions: Compound concentration 1000.0 nM

## CN(C)CC#Cc1ccc(OCCCc2sc(N3CCc4cccc(C(=O)Nc5nc6ccccc6s5)c4C3)nc2C(=O)O)c(F)c1 [A-1155463]
[1]
  residual activity: 100%
[2]
  residual activity: 97%
[3]
  residual activity: 86%
[4]
  residual activity: 93%
[5]
  residual activity: 95%
[6]
  residual activity: 100%
[7]
  residual activity: 97%
[8]
  residual activity: 90%
[9]
  residual activity: 87%
[10]
  inhibition: 23.2%
[11]
  Ki: 2120 nM
[12]
  residual activity: 81%
[13]
  residual activity: 100%
[14]
  residual activity: 98%
[15]
  residual activity: 100%
[16]
  inhibition: 3.53%
[17]
  residual activity: 100%
[18]
  residual activity: 100%
[19]
  residual activity: 91%
[20]
  residual activity: 91%
[21]
  residual activity: 100%
[22]
  inhibition: 15.4%
[23]
  residual activity: 75%
[24]
  residual activity: 100%
[25]
  inhibition: -1.75%
[26]
  residual activity: 100%
[27]
  residual activity: 88%
[28]
  residual activity: 100%
[29]
  residual activity: 95%
[30]
  residual activity: 96%
[31]
  residual activity: 100%
[32]
  residual activity: 93%
[33]
  residual activity: 96%
[34]
  residual activity: 100%
[35]
  residual activity: 90%
[36]
  residual activity: 100%
[37]
  residual activity: 100%
[38]
  residual activity: 100%
[39]
  residual activity: 77%
[40]
  inhibition: 83%
[41]
  residual activity: 96%
[42]
  residual activity: 91%
[43]
  residual activity: 99%
[44]
  residual activity: 75%
[45]
  residual activity: 90%
[46]
  residual activity: 100%
